One assay has as its system NCI-H1373 cancer cells. Description: NCI-H1373 cancer cell growth inhibition (CellTiter-Glo, 144 hours). The note with it: Homo sapiens, 144 hours culture. It is filed as cell-based. The method, then:
Promega CellTiter-Glo cell activity assay kit (Item No.: Promege-G7573) was used to determine the cell activity. 90 μL NCI-H1373 cell suspension (ATCC, catalog No. CRL-5866, batch No. 58078716) was spread into the pores of the 96-well plate with 3500 cells per well. After 24 hours, the 10 μL prepared 10× compound working solution was added into the pores of the cell culture plate with a final concentration of 10 μM. 3.3333 μM, 1.1111 μM, 0.3704 μM, 0.1235 μM, 0.0412 μM, 0.0137 μM, 0.0046 μM, 0.0015 μM, 0.0005 μM, 10 μL DMSO was added to the solvent control, and the final concentration of DMSO was 0.2%. The 0-day plates were collected for analysis, and after 144 hours of culture, the growth condition of cells was detected according to the instructions of CellTiter-Glo cell activity assay kit. Add 50 μL of CellTiter-Glo working liquid into each hole of the cell culture plate, shake the plates in the dark for 2 minutes until cell lysis, and place at room temperature for 10 minutes to detect the luminous signal (RUL) of each cell hole on the 2104En Vision board reader.
Calculation formula: Growth inhibition rate %=(1−(RLU compound−RLU Day0)/(RLU solvent control−RLU Day0))*100%. The dose-response curves of each compound were fitted by GraphPad Prism 8 to obtain IC50 values.
For the matter, IC50 values less than 0.1 μM are labeled “+++”, values from 0.1 to 1 μM are labeled “++”, and values greater than 1 to 10 μM are labeled “+”.
Background: In ATP-based viability assays light output follows the ATP content of the culture.

Assay [1] concerns the target T1, recombinant human PARP7 protein (Homo sapiens, UniProt Q7Z3E1).
T1 construct: purchased Abcam ab271651
T1 sequence (Q7Z3E1 1-657): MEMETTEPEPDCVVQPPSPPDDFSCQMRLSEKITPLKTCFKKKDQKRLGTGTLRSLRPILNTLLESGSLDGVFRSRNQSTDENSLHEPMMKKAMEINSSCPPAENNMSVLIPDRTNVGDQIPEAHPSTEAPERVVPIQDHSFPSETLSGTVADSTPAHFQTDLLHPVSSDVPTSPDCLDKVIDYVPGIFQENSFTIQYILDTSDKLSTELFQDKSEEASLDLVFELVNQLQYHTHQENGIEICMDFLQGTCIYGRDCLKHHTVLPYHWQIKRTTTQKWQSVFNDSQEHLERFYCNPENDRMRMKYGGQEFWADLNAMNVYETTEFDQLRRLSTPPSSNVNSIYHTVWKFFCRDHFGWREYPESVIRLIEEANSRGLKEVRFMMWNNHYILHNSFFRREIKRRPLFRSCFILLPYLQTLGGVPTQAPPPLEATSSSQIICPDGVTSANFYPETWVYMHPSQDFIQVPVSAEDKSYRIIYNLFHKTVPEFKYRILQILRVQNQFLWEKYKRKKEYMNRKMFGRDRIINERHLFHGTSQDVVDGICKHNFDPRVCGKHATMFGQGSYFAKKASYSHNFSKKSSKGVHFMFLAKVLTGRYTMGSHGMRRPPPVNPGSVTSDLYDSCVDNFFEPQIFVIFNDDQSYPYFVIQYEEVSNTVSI
In words: Inhibition of PARP7 biological enzyme activity (histone-coated plate, Biotin-NAD+, chemiluminescence). It is filed as biochemical. The note with it: recombinant human PARP7, Biotin-NAD+ substrate. As for the experimental part: The recombinant human PARP7 protein kit (Abcam, catalog number ab271651) was used for the assay. According to the kit instructions, 30 μL of histone coating solution (1.5 μg/mL) was first applied to the 384 well holes of the reaction plate and coated at 4° C. for 2 hours. Then, the histone coated solution was washed off, and 50 μL sealing buffer was added to each well, and the sealing buffer was washed off after incubation at 25° C. for 60 minutes. 1000 times the concentration of the compound was 10 configured and diluted from 1 mM to 0.05 μM, and the configured compound was transferred to 384-well plates with 25 nL per well using Echo. The final concentration of the compound in the reaction system was 1000 nM, 333.33 nM, 111.11 nM, 37.03 nM, 12.34 nM, 4.11 nM, 1.37 nM, 0.45 nM, 0.15 nM, 0.05 nM, which was used as the test hole. At the same time, 25 nL DMSO was added to the negative control well and the positive control well. The PARP7 enzyme solution with a concentration of 1.67 times was prepared, and the PARP7 enzyme solution was added to the test hole and the positive control hole with 15 μL each, while the negative control hole was added with 15 μL base Buffer, and incubated at 25° C. for 15 minutes. Then 10 μL 2.5 times Biotin-NAD+ substrate solution was added and incubated at 25° C. for 60 min. After the reaction solution was washed off, the 384-well reaction plates were treated with closed buffer solution diluted with streptavidin-HRP (1:500), each well was 30 μL, and incubated at 25° C. for 30 min. After the HRP buffer was washed off, 30 μL HRP chemiluminescent substrate mixture was added to each well, and the luminescence signal (RLU) of each well was detected by Envision. Calculation formula: Inhibition rate %=(average positive control-RLU compound)/(average positive control-average negative control))*100%. The dose-response curves of each compound were fitted by GraphPad Prism 8 to get IC50 values. IC50 values less than 0.01 μM are labeled as “+++”, IC50 values from 0.01 to 0.1 µM are labeled as “++”, and IC50 values greater than 0.1 to 10.0 μM are labeled as “+”.

The results in this text go back to patent US20240336596A1, “PARP7 INHIBITOR AND USE THEREOF” (NOVOSTAR PHARMACEUTICALS, LTD., priority 2022, published 2024).

What is called IC50 is the concentration at which inhibition is half-maximal.

For `C[C@@H](/C=N/OCC(=O)N1CCN(c2ncc(C(F)(F)F)cn2)CC1)Nc1cn[nH]c(=O)c1C(F)(F)F` [Example 5, (S,E)-2-((6-oxo-5-(trifluoromethyl)-1,6-dihydropyridazin-4-yl)amino) propanal O-(2-oxo-2-(4-(5-(trifluoromethyl)pyrimidin-2-yl)piperazin-1-yl)ethyl) oxime], the IC50 in the assay with NCI-H1373 cancer cells was under 100 nM; in assay [1], under 10 nM.

With `CC[C@@H](/C=N/OCC(=O)N1CCN(c2ncc(C(F)(F)F)cn2)CC1)Nc1cn[nH]c(=O)c1C(F)(F)F` [Example 6, (S,E)-2-((6-oxo-5-(trifluoromethyl)-1,6-dihydropyridazin-4-yl)amino)butanal O-(2-oxo-2-(4-(5-(trifluoromethyl)pyrimidin-2-yl)piperazin-1-yl)ethyl)oxime], the results for the IC50 (in the assay on NCI-H1373 cancer cells; in assay [1]) were 100 to 1000 nM and under 10 nM, respectively.

Consider `C[C@@H](/C=N/OCC(=O)N1CCN(c2ncc(C#N)cn2)CC1)Nc1cn[nH]c(=O)c1C(F)(F)F` [Example 7, (S,E)-2-(4-(2-(((2-((6-oxo-5-(trifluoromethyl)-1,6-dihydropyridazin-4-yl)amino)propylidene)amino)oxy)acetyl)piperazin-1-yl)pyrimidine-5-carbonitrile], for which the IC50 with NCI-H1373 cancer cells is 1000 to 10000 nM; in assay [1], under 10 nM.

Regarding `C/C(=N\OCC(=O)N1CCN(c2ncc(C(F)(F)F)cn2)CC1)[C@H](C)Nc1cn[nH]c(=O)c1C(F)(F)F` [Example 8, (S,E)-5-((3-((2-oxo-2-(4-(5-(trifluoromethyl)pyrimidin-2-yl)piperazin-1-yl)ethoxy)imino)butan-2-yl)amino)-4-(trifluoromethyl)pyridazin-3(2H)-one], in assay [1], the IC50 was in the range of 10 to 100 nM.

On to `O=C(CO/N=C1\CCC[C@@H]1Nc1cn[nH]c(=O)c1C(F)(F)F)N1CCN(c2ncc(C(F)(F)F)cn2)CC1` [Example 9, (S,E)-5-((2-((2-oxo-2-(4-(5-(trifluoromethyl)pyrimidin-2-yl)piperazin-1-yl)ethoxy)imino)cyclopentyl)amino)-4-(trifluoromethyl)pyridazin-3(2H)-one], for which the IC50 in the assay with NCI-H1373 cancer cells is 100 to 1000 nM; in assay [1], under 10 nM.

In the case of `O=C(CO/N=C/[C@@H](Nc1cn[nH]c(=O)c1C(F)(F)F)C1CC1)N1CCN(c2ncc(C(F)(F)F)cn2)CC1` [Example 10, (S,E)-2-cyclopropyl-2-((6-oxo-5-(trifluoromethyl)-1,6-dihydropyridazin-4-yl)amino)acetaldehyde O-(2-oxo-2-(4-(5-(trifluoromethyl)pyrimidin-2-yl)piperazin-1-yl)ethyl) oxime], the IC50 is 100 to 1000 nM in the assay with NCI-H1373 cancer cells and under 10 nM in assay [1].

Consider `C[C@@H](/C=N/OCC(=O)N1CCN(c2ccc(C#N)cn2)CC1)Nc1cn[nH]c(=O)c1C(F)(F)F` [Example 11, (S,E)-6-(4-(2-(((2-((6-oxo-5-(trifluoromethyl)-1,6-dihydropyridazin-4-yl)amino)propylidene)amino)oxy)acetyl)piperazin-1-yl)nicotinonitrile], for which the values for the IC50 (with NCI-H1373 cancer cells; in assay [1]) were 1000 to 10000 nM and under 10 nM, respectively.

For the molecule `C[C@@H](/C=N/OCC(=O)N1CCN(c2ccc(C(F)(F)F)cn2)CC1)Nc1cn[nH]c(=O)c1C(F)(F)F` [Example 12, (S,E)-2-((6-oxo-5-(trifluoromethyl)-1,6-dihydropyridazin-4-yl)amino)propanal O-(2-oxo-2-(4-(5-(trifluoromethyl)pyridin-2-yl)piperazin-1-yl)ethyl) oxime], the IC50 is 100 to 1000 nM in the assay on NCI-H1373 cancer cells and under 10 nM in assay [1].

For the molecule `C/C(=N\OC[C@H](C)Nc1cn[nH]c(=O)c1C(F)(F)F)C(=O)N1CCN(c2ncc(C(F)(F)F)cn2)CC1` [Example 16, (S,E)-5-((1-(((1-oxo-1-(4-(5-(trifluoromethyl)pyrimidin-2-yl)piperazin-1-yl)propan-2-ylidene)amino)oxy)propan-2-yl)amino)-4-(trifluoromethyl)pyridazin-3(2H)-one], the IC50 in assay [1] is 10 to 100 nM.
